Experimental data taken from the supplement of paper PMC10307832.

Compound: Cc1ccc(Nc2nccc(N(C)c3ccc4c(C)n(C)nc4c3)n2)cc1S(N)(=O)=O [Pazopanib] + CS(=O)(=O)CCNCc1ccc(-c2ccc3ncnc(Nc4ccc(OCc5cccc(F)c5)c(Cl)c4)c3c2)o1 [Lapatinib] (partner 2 µM)
Experiment: relative viability (nuclei count vs DMSO), 5 days (fraction); higher = more cells survive
Settings: first compound 0.01 µM
Summary of the method: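 Lung cancer cell lines, seeded in 1536-well plates, were treated the following day by pin tool with a single drug or with five library-drug doses (not always all listed) in √10 steps on top of a fixed anchor-drug dose. Cells were fixed and nuclei stained in one step after 5 days, and nuclei were counted. Relative viability is the nuclei count for treated wells divided by that for vehicle wells, reported as medians of duplicate plates.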

Going from HCC-15 to NCI-H1944, the relative viability falls from 0.841 to 0.561.

Compared with PC-3 [JPC-3], EKVX is lower in relative viability: 0.367 for the first, 0.183 for the second.

Compared with LC-2-ad, NCI-H1563 is lower in relative viability: 1.01 for the first, 0.75 for the second.

Going from NCI-H2170 to NCI-H1975, the relative viability rises from 0.242 to 0.798.

First: SK-LU-1
Second: SK-MES-1
The relative viability of the first is higher: 0.903 for the first, 0.43 for the second.

Going from NCI-H661 to RERF-LC-KJ, the relative viability rises from 0.538 to 0.761.

Same assay, conditions: first compound 0.03162 µM

Going from NCI-H23 to NCI-H1299, the relative viability falls from 1.3 to 0.962.

Compared with NCI-H650, CAL-12T is lower in relative viability: 1.08 for the first, 0.669 for the second.

First: NCI-H1651
Second: EPLC-272H
The relative viability of the first is higher: 0.876 for the first, 0.797 for the second.

Compared with NCI-H2228, NCI-H1792 is lower in relative viability: 1.15 for the first, 0.863 for the second.

Compared with NCI-H1355, NCI-H322M is lower in relative viability: 0.845 for the first, 0.645 for the second.

First: NCI-H1437
Second: NCI-H1755
The relative viability of the first is lower: 0.877 for the first, 0.993 for the second.

Compared with NCI-H2023, HCC-15 is lower in relative viability: 0.806 for the first, 0.789 for the second.

Compared with NCI-H1944, PC-3 [JPC-3] is lower in relative viability: 0.84 for the first, 0.463 for the second.

Going from EKVX to LC-2-ad, the relative viability rises from 0.213 to 0.954.

Going from NCI-H1563 to NCI-H2170, the relative viability falls from 1 to 0.264.

Compared with NCI-H1975, SK-LU-1 is higher in relative viability: 0.822 for the first, 0.942 for the second.

Compared with ABC-1, SK-MES-1 is lower in relative viability: 1.32 for the first, 0.472 for the second.

Compared with NCI-H661, RERF-LC-KJ is higher in relative viability: 0.629 for the first, 0.758 for the second.

Same assay, conditions: first compound 0.1 µM

Going from NCI-H23 to NCI-H1299, the relative viability falls from 1.41 to 0.969.

First: NCI-H650
Second: CAL-12T
The relative viability of the first is higher: 0.933 for the first, 0.69 for the second.

Compared with NCI-H1651, EPLC-272H is higher in relative viability: 0.885 for the first, 1.01 for the second.

Compared with NCI-H2228, NCI-H1792 is lower in relative viability: 0.979 for the first, 0.918 for the second.

First: NCI-H1355
Second: NCI-H322M
The relative viability of the first is higher: 0.93 for the first, 0.653 for the second.

Going from NCI-H1437 to NCI-H1755, the relative viability rises from 0.823 to 1.02.

Compared with NCI-H2023, HCC-15 is higher in relative viability: 0.73 for the first, 0.907 for the second.

First: NCI-H1944
Second: PC-3 [JPC-3]
The relative viability of the first is higher: 0.949 for the first, 0.493 for the second.

Compared with EKVX, LC-2-ad is higher in relative viability: 0.231 for the first, 0.999 for the second.

First: NCI-H1563
Second: NCI-H2170
The relative viability of the first is higher: 0.997 for the first, 0.293 for the second.

First: NCI-H1975
Second: SK-LU-1
The relative viability of the first is lower: 0.875 for the first, 1.18 for the second.

First: ABC-1
Second: SK-MES-1
The relative viability of the first is higher: 1.37 for the first, 0.508 for the second.

First: NCI-H661
Second: RERF-LC-KJ
The relative viability of the first is lower: 0.476 for the first, 0.815 for the second.

Same assay, conditions: first compound 0.3162 µM

Going from NCI-H23 to NCI-H1299, the relative viability falls from 1.09 to 1.02.

Compared with NCI-H650, CAL-12T is lower in relative viability: 0.909 for the first, 0.733 for the second.

Compared with NCI-H1651, EPLC-272H is higher in relative viability: 0.857 for the first, 1.14 for the second.

Compared with NCI-H2228, NCI-H1792 is lower in relative viability: 1.08 for the first, 0.847 for the second.

Compared with NCI-H1355, NCI-H322M is lower in relative viability: 0.989 for the first, 0.632 for the second.

Going from NCI-H1437 to NCI-H1755, the relative viability rises from 0.815 to 1.02.

Compared with NCI-H2023, HCC-15 is higher in relative viability: 0.791 for the first, 0.89 for the second.

Compared with NCI-H1944, PC-3 [JPC-3] is lower in relative viability: 0.923 for the first, 0.468 for the second.

Going from EKVX to LC-2-ad, the relative viability rises from 0.344 to 0.979.

Going from NCI-H1563 to NCI-H2170, the relative viability falls from 1.09 to 0.316.

Compared with NCI-H1975, SK-LU-1 is higher in relative viability: 0.873 for the first, 0.976 for the second.

Going from ABC-1 to SK-MES-1, the relative viability falls from 0.91 to 0.491.

First: NCI-H661
Second: RERF-LC-KJ
The relative viability of the first is lower: 0.431 for the first, 0.734 for the second.

Same assay, conditions: first compound 1 µM

Compared with NCI-H23, NCI-H1299 is lower in relative viability: 1.14 for the first, 0.894 for the second.

Compared with NCI-H650, CAL-12T is lower in relative viability: 1.36 for the first, 0.816 for the second.

First: NCI-H1651
Second: EPLC-272H
The relative viability of the first is higher: 1.12 for the first, 0.802 for the second.

Going from NCI-H2228 to NCI-H1792, the relative viability falls from 0.929 to 0.823.

Compared with NCI-H1355, NCI-H322M is lower in relative viability: 1.17 for the first, 0.618 for the second.

First: NCI-H1437
Second: NCI-H1755
The relative viability of the first is lower: 0.785 for the first, 1.02 for the second.

Compared with NCI-H2023, HCC-15 is lower in relative viability: 1.35 for the first, 1 for the second.

First: NCI-H1944
Second: PC-3 [JPC-3]
The relative viability of the first is higher: 0.953 for the first, 0.451 for the second.

Compared with EKVX, LC-2-ad is higher in relative viability: 0.297 for the first, 1.12 for the second.

Going from NCI-H1563 to NCI-H2170, the relative viability falls from 1.16 to 0.269.

First: NCI-H1975
Second: SK-LU-1
The relative viability of the first is higher: 0.907 for the first, 0.871 for the second.

Compared with ABC-1, SK-MES-1 is lower in relative viability: 1.27 for the first, 0.58 for the second.

Going from NCI-H661 to RERF-LC-KJ, the relative viability rises from 0.648 to 0.799.
